Measured values taken from US20220079962A1, “NUTRITIONAL COMPOSITION COMPRISING 2'FUCOSYLLACTOSE AND DIETARY BUTYRATE” (N.V. Nutricia, priority 2019, published 2022).

Experiments:
[1] = system: human peripheral blood mononuclear cells (PBMC); test: PBMC cell activity (WST-1); assay type: cell-based; details: after 24 h
Method: PBMC activation model: PBMC (0.2.10^6 cell/well) were cultured in 96-well flat bottom plates (Corning). For 24 hours the cells were pre-incubated with 2′-FL (Jennewein), 3′-GL (0-0.3% w/v; […] Sigma Aldrich) and combinations thereof. Subsequently, the cells were CD3/CD28-activated (Pelicluster CD3 and Pelicluster CD28, Sanquin) for an additional 24 hours. After incubation, IFNγ was measured by ELISA in the supernatants (see below). […] Roche) and/or 10% Triton (5 μl; negative control).

Bifidobacteria = test: Fecal slurry fermentation, CFU of total Bifidobacteria
Method: A 32 well plate that can handle low pH was used. The wells of this plate were filled with fecal solution. 2.5% (w/v) of the different sterile carbohydrate solutions (3′-GL, 2′-FL, 2′-FL/3′-GL (2.0+0.5%). and Glucose were added to the fecal slurry according to a template.
The experiment was started, and pH setpoint was either 5.5 (facial inoculum from infant 1, vaginally born, breast fed) or pH 6.0 (Inoculum from infant 2, vaginally born, breast fed) with continuous pH regulation, and temperature 37° C., humidity 85%, OD control. At 4, 8 and 24 hours a sample is taken for CFU determination on TOS-propionate MUP agar (total Bifidobacteria), XLD agar for Salmonella enteriditis S29, and Simons citrate inositol agar for Klebsiella pneumonia K2 and for SCFA, D- and L Lactate and ammonia analysis. Fecal pellet was used for 16s DNA sequencing. For both inocula the extent of fermentation, as measured by NaOH consumption, i.e. acid production, was highest with the combination of 3′-GU2′-FL, when compared to 3′-GL or 2′-FL alone. The rate of initial acidification was high for 3′-GL and for 3′-GL/2′-FL. […] As the amount of carbohydrates that can be fermented is the same in the reaction vessels, the higher total acidification with the combination is indicative for an unexpected, synergistic effect of the combination of 2′-FL and 3′-GL. The SCFA that were produced was for the largest part acetic acid. Also L-lactic acid was produced.

[2] = system: human peripheral blood mononuclear cells (PBMC); test: PBMC cytokine levels, unstimulated condition; assay type: cell-based; details: for Relative CCL 20, observed: 0.1 w/v % 3′-GL
Source text: Isolation of PBMC from healthy donors: Human peripheral blood mononuclear cells (PBMC) from healthy donors were isolated from buffy coats (Sanquin, Amsterdam, the Netherlands). PBMC were obtained by centrifugation using Leucosep tubes (Greiner Bio-One). […] After lysis, the PBMC were resuspended in freezing medium (70% RPMI 1640 medium (Gibco, Thermo Fisher Technologies) supplemented with 10% heat-inactivated FCS and 100 U/ml penicillin-streptomycin, 20% heat-inactivated FCS and 10% DMSO (Sigma)) and cryopreserved. PBMC activation model: PBMC (0.2.10^6 cell/well) were cultured in 96-well flat bottom plates (Corning). For 24 hours the cells were pre-incubated with 2'-FL (Jennewein), 3'-GL (0-0.3% w/v; […] Sigma Aldrich) and combinations thereof. Subsequently, the cells were CD3/CD28-activated (Pelicluster CD3 and Pelicluster CD28, Sanquin) for an additional 24 hours. After incubation, IFNγ was measured by ELISA in the supernatants (see below). […] Roche) and/or 10% Triton (5 μl; negative control). […] Cytokine production of PBMC: PBMC were incubated with indicated reagents. After incubation, the supernatants were collected and IL2, IL6, IL10, IL13, IL21, TNFα, IFNγ, MIF, CCL1, CCL13, CCL17, CCL20, CCL22 and CXCL8-11 levels were measured by conducting a validated multiplex immunoassay based on Luminex technology (xMAP, Luminex Austin Tex. USA). Acquisition was conducted with the Biorad […] (Biorad laboratories, Hercules USA) in combination with xPONENT software version 4.2 (Luminex). Data was analyzed by 5-parametric curve fitting using Bio-Plex Manager software, version 6.1.1 (Biorad). After PBMC stimulation, cell culture supernatants were collected, after which cytokine responses were measured in order to test immune responsiveness of the cells. The levels of cytokines measured in stimulated conditions were corrected for the (low) levels of the cytokines measured in non-stimulated conditions. In addition, since each donor is reacting in its own efficiency onto the T cell stimulus, we calculated the individual index of cytokine response by dividing the intervention induced response by the basal stimulated response.

Caco-2 cell monolayer = test: DON-induced impairment of Caco-2 cell monolayer integrity (TEER, lucifer yellow flux); assay type: cell-based, human
Method: Caco-2 cells were used according to established methods. In brief: cells were cultured in Dulbecco's modified Eagle medium (DMEM) and seeded at a density of 0.3×10^5 cells into 0.3 cm^2 high pore density (0.4 μm) inserts with a polyethylene terephthalate membrane (BD Biosciences, Franklin Lakes, N.J., USA) placed in a 24-well plate. The Caco-2 cells were maintained in a humidified atmosphere of 95 air and 5% CO2 at 37° C.
Caco-2 cell monolayers were thus grown in a transwell system, which is a model for intestinal barrier function. The monolayers were pretreated for 24 h with different GLs, including beta3′-GL, alpha3′-GL, beta4′-GL and beta6′-GL in a concentration of 0.75 wt. % of the GL, before being exposed to the fungal toxin deoxynivalenol (DON), which is a trigger and model compound to impair intestinal barrier. DON was diluted to a final concentration of 4.2 μM in complete cell medium and added to the apical side as well as to the basolateral side of the transwell inserts. […] Incubation with DON was 24 h.
Measurements of the transepithelial electrical resistance (TEER) and lucifer yellow (LY) permeability were conducted to investigate barrier integrity. For TEER measurements a Millicel-ERS voltohmmeter connected to a pair of chopsticks electrodes was used to measure the TEER values. Results are expressed as a percentage of the initial value. For paracellular tracer flux assay the membrane impermeable lucifer yellow (LY) (Sigma, St Louis, Mo., USA) was added in a concentration of 16 μg/ml to the apical compartment in the transwell plate for 4 h, and the paracellular flux was determined by measuring the fluorescence intensity in the basolateral compartment with a spectrophotofluorimeter (FLUOstar Optima, BMG Labtech, Offenburg, Germany) set at excitation and emission wavelengths of 410 and 520 nm, respectively. Release of interleukin-8 (IL-8 or CXCL8), which is a typical marker for inflammation, was quantified in the medium of the apical side and the basolateral side of the Caco-2 transwell inserts in response to the treatments. CXCL8 concentrations were measured by using the human IL-8 ELISA assay (BD Biosciences, Pharmingem, San Diego, Calif., USA) according to manufacturer's instructions. For more details on materials and methods see Akbari et al, 2016, Eur J Nutr. 56(5):1919-1930.

[3] = unstimulated, relative to blanc (=1), 0.2% w/v 2′-FL, 0.2 mM butyrate, mean
[4] = DON 4.2 μM with 2′-FL 1 mg/ml, mean

| Compound | Immune cell activity as measured by WST [1] | Growth of bifidobacteria (Bifidobacteria) | effect on bifidobacteria (Bifidobacteria; inoculum of baby 2) | CCL20 level compared to blanc control ([2]; unstimulated) | Relative CCL 20, observed [2, 3] | effect on DON-induced loss of epithelial barrier integrity (TEER, LY flux) (Caco-2 cell monolayer; 24 h pretreatment with 0.75 wt. % GL, then DON 4.2 μM 24 h, FIGS. 1A-D) | IL10 level compared to blanc control ([2]; 0.2% 2′-FL, 0.2 mM butyrate) | Relative IL10 level, observed ([2]; unstimulated, relative to blanc (=1), 0.2% w/v 2′-FL, 0.2 mM butyrate, mean, 10 donors) | effect on DON induced reduction in TEER and increase in LYF (Caco-2 cell monolayer; 2′-FL 1 mg/ml) | Lucifer yellow flux (Caco-2 cell monolayer; [4]) | TEER (% of initial value) (Caco-2 cell monolayer; [4]) |
| --- | --- | --- | --- | --- | --- | --- | --- | --- | --- | --- | --- |
| Gal (beta 1-3)-Gal (beta 1-4)-Glc [3′-GL] | decrease in activation | Growth of bifidobacteria was observed | highest | did not have a statistically significant effect | 1.164 | prevented the DON-induced loss of epithelial barrier integrity | – | – | – | – | – |
| C[C@@H]1O[C@@H](O[C@H]2[C@H](O[C@H]3[C@H](O)[C@@H](O)C(O)O[C@@H]3CO)O[C@H](CO)[C@H](O)[C@@H]2O)[C@@H](O)[C@H](O)[C@@H]1O (stereo partly drawn) [2′-FL, α-L-Fuc-(1→2)-β-D-Gal-(1→4)-D-Glc] | significantly increased | Growth of bifidobacteria was observed | – | increased level of CCL20 | 2.586 | – | significantly (p<0.05) increased level of IL10 | 3.361 | statistically significantly prevent the DON induced reduction in TEER and increase in LYF | 446.4 ng/ml (cm^2 × h) | 42.79 % of initial value |
